In patent US20050049220A1, “Dosing regimen for Flaviviridae therapy” (priority 2003, published 2005):
Like-named read-outs stand apart in the source and are kept apart here.

Columns and labels:
[1] = test system: HCV replicon cells (Huh-7); test: 7-day cell growth dynamics, trypan-blue cell count; details: for effect on cell proliferation: 7-day period, at 96 h EC90 value (ribavirin 100 μM, IFN 100 IU/ml)
Procedure: FIG. 2 is a graphical depiction of the dynamics of cell growth and HCV RNA levels after exposure to control anti-HCV compounds. HCV replicon cells were seeded at approximately 10^4 cells per well in a 24-well plate. Over a 7-day period, cells were counted daily, and rRNA and HCV RNA were quantified by Q-RT-PCR. A: IFN-α-2a at 100 IU/ml; B: ribavirin at 100 μM. ●: cell proliferation in absence of compound; ◯: cell proliferation in presence of compound; ▾: HCV RNA levels in untreated cells; ∇: HCV RNA levels in the presence of compound. The curves shown are averages of 3 independent experiments.
Therefore, experiments were conducted to monitor HCV RNA levels and the cell growth dynamics over a 7-day period.
The dynamics of HCV replicon cells exposed to these inhibitors (at their EC90 value) was monitored over a 7-day period.

HCV replicon = HCV replicon assay: HCV RNA by Q-RT-PCR, 4 days exposure; type: cell-based, hepatitis C virus (HCV); details: for EC90: read-out: Corrected HCV RNA EC90; for log reduction at 10 µM: read-out: Corrected HCV RNA log10 reduction at 10 μM
Procedure: Antiviral screening assays can be done in the same media without G418 as follows: in order to keep cells in logarithmic growth phase, seed cells in a 96-well plate at low density, for example 1000 cells per well. Add the test compound immediate after seeding the cells and incubate for a period of 3 to 7 days at 37° C. in an incubator. Media is then removed, and the cells are prepared for total nucleic acid extraction (including replicon RNA and host RNA). Replicon RNA can then be amplified in a Q-RT-PCR protocol, and quantified accordingly. […] This value is called DeltaCt (ΔCt or DCt).
This value is called DeltaCt (ΔCt or dCt).

Huh-7 cells = test: Cellular rRNA levels / cytotoxicity in HCV replicon cells; details: 100 μM; 4 days; HCV replicon transfected Huh-7 cells
Source text: In a typical setting, a compound might reduce both the host RNA polymerase activity and the replicon-encoded polymerase activity. Therefore, quantification of rRNA (or any other host RNA polymerase I product) or beta-actin mRNA (or any other host RNA polymerase II) and comparison with RNA levels of the no-drug control is a relative measurement of the effect of the test compound on host RNA polymerases.
With the availability of both the HCV ΔCt data and the rRNA ΔCt, a specificity parameter can be introduced. This parameter is obtained by subtracting both ΔCt values from each other.
IFN-α-2a and ribavirin were tested over a range of concentrations for their ability to reduce the HCV RNA levels in exponentially growing replicon cells after 4 days of exposure as described (Stuyver, L. et al. “A ribonucleoside analogue that blocks the replication of bovine viral diarrhea and hepatitis C viruses in culture” Antimicrob. Agents Chemother. 2003, 47, 244-254).
Gemcitabine was dissolved in DMSO and added to the culture media of a cellular model system of Huh7 cells harboring self-replicating HCV RNA, at final concentrations ranging from […]. In such experiments, one way to express the antiviral effectiveness of a compound is to subtract the threshold reverse-transcriptase polymerase chain reactions (RT-PCR) cycle of the test compound with the average threshold RT-PCR cycle of the negative control. This value is called DeltaCt (ΔCt or dCt). With the availability of both the HCV ΔCt data and the rRNA ΔCt, a specificity parameter can be introduced. This parameter is obtained by subtracting both ΔCt values from each other.

HCV replicon cells = test: Prevention studies with natural ribo- or 2′-deoxy nucleosides; type: cell-based, human; details: test compound at 96 h EC90 value; nucleosides at 50 μM
HCV replicon RNA [2] = test: Replicon RNA copy number per cell; type: cell-based, hepatitis C virus (HCV); details: for change in replicon RNA copy number per cell (words): 7-day period, treated versus no-treatment controls
Procedure: FIG. 4 is a graphical depiction of the log10 changes for replicon RNA levels per cell. The plots were obtained from data collected in FIGS. 2 and 3, in which log10 changes for cell count and replicon RNA levels were subtracted from each other. A. Control antiviral compounds. ●: no drug control; ▾: IFN-α-2a at 100 IU/ml; ▪: ribavirin at 100 μM. B. Selection of the most important anti-metabolites. ●: no drug control; ▾: dFdC at 50 nM; ▪: CP-C at 25 μM; ♦: CPE-C at 2.5 μM; ▴: PALA at 10 μM; ●: PZF at 5 μM.
To express the specificity of the antiviral action of the control compounds versus the anti-metabolites, the log10 change in replicon RNA copy number per cell and per day was calculated from the above experiments.

HCV replicon RNA [3] = test: 7-day dynamics of HCV RNA levels; type: cell-based, hepatitis C virus (HCV); details: for effect on HCV RNA levels: 7-day period, at 96 h EC90 value (IFN 100 IU/ml)
HCV = details: cited from earlier work
[4] = Hepatitis C virus, 96 h, 100 μM, 4 days, HCV replicon transfected Huh-7 cells, read-out: log10 RNA reduction at 100 μM, HCV

NC(=O)c1[nH]nc([C@@H]2O[C@H](CO)[C@@H](O)[C@H]2O)c1O [PZF, pyrazofurin]
effect on cell proliferation [1]: reduced cell proliferation only minimally | EC90 (HCV replicon; Hepatitis C virus, 96 h): 3.8 µM | log reduction at 10 µM (HCV replicon; Hepatitis C virus, 96 h): 1.16 ± 0.21 | log reduction at 100 µM (HCV replicon; Hepatitis C virus, 96 h, read-out: Corrected HCV RNA log10 reduction at 100 μM): 1.46 ± 0.08 | log reduction at 100 µM (HCV replicon; [4]): 1.88 ± 0.05 | log10 RNA reduction at 100 μM, rRNA (Huh-7 cells): 0.42 ± 0.03 log10 | prevention of antiviral and cytostatic effects by natural nucleosides (HCV replicon cells): prevented by addition of uridine | reduction in replicon RNA levels per cell (HCV replicon RNA [2]; 5 μM, after 7 days treatment): 2.96 log10 | change in replicon RNA copy number per cell (words) (HCV replicon RNA [2]): time dependent reduction | effect on HCV RNA levels (HCV replicon RNA [3]): significantly reduced HCV RNA levels

NC(=O)c1ncn([C@@H]2O[C@H](CO)[C@@H](O)[C@H]2O)n1 [Ribavirin, 1-β-D-ribofuranosyl-1-1,2,4-triazole-3-carboxamide]
effect on serum levels of HCV-RNA (HCV; HCV patients): does not lower | patients with serum amino transferase levels reduced to normal (HCV): 40% | log10 reduction in cell growth at day 7 compared to day 0 ([1]; 100 μM): 0.22±0.1 log10 | log10 reduction in cell growth compared to the no treatment control on day 7 ([1]; 100 μM): 1.53 log10 | effect on cell proliferation [1]: completely inhibited cell proliferation | log reduction at 10 µM (HCV replicon; Hepatitis C virus, 96 h, 10 μM, corrected for rRNA): 0.16 ± 0.1 | log reduction at 100 µM (HCV replicon; [4]): 1.96 ± 0.28 | log reduction at 100 µM (HCV replicon; Hepatitis C virus, 96 h, 100 μM, corrected for rRNA, read-out: Corrected HCV RNA log10 reduction at 100 μM): 1.05 ± 0.29 | EC90 (HCV replicon; Hepatitis C virus, 96 h incubation): ~100 µM | log10 RNA reduction at 100 μM, rRNA (Huh-7 cells): 0.91 ± 0.12 log10 | prevention of antiviral and cytostatic effects by natural nucleosides (HCV replicon cells): 2′-deoxyguanosine and guanosine prevented the effects | change in replicon RNA copy number per cell (words) (HCV replicon RNA [2]): only minimally | change in replicon RNA copy number per cell (words) (HCV replicon RNA [2]; listed as ribavirin): changed only marginally | HCV RNA reduction on day 7 compared to untreated controls (HCV replicon RNA [3]; 100 μM): 2.08 log10

Cyclopentylcytosine [CP-C]
effect on cell proliferation [1]: cytostatic effects | Corrected HCV RNA log10 reduction at 10 μM (HCV replicon; 10 μM, corrected for rRNA): 0.64 ± 0.10 log10 | log10 RNA reduction at 100 μM, HCV (HCV replicon; 100 μM, 4 days, HCV replicon transfected Huh-7 cells): 1.97 ± 0.38 log10 | Corrected HCV RNA log10 reduction at 100 μM (HCV replicon; 100 μM, corrected for rRNA): 1.06 ± 0.26 log10 | EC90 (HCV replicon; 96 h incubation): 25 µM | log10 RNA reduction at 100 μM, rRNA (Huh-7 cells): 0.91 ± 0.13 log10 | prevention of antiviral and cytostatic effects by natural nucleosides (HCV replicon cells): addition of cytidine to the culture medium compensated for the inhibitory effects | change in replicon RNA copy number per cell (words) (HCV replicon RNA [2]): profile similar to that seen for IFN-α-2a | effect on HCV RNA levels (HCV replicon RNA [3]): reduced HCV-replicon RNA levels
